Data as given in the supplement of paper PMC10307832.

How the values were obtained:
Test in all cases: relative viability (nuclei count vs DMSO), 5 days (fraction); higher = more cells survive
Wnt-C59 + Pictilisib = compound: CC1=NC=CC(=C1)C2=CC=C(C=C2)CC(=O)NC3=CC=C(C=C3)C4=CN=CC=C4 [Wnt-C59] + CS(=O)(=O)N1CCN(Cc2cc3nc(-c4cccc5[nH]ncc45)nc(N4CCOCC4)c3s2)CC1 [Pictilisib] (partner 1 µM)
How it was run: (§1)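 Values are medians from duplicate plates. Each reflects relative viability, defined as the nuclei count of treated wells over that of vehicle wells. Lung cancer cell lines in 1536-well plates were pin-tool dosed one day after seeding with one drug alone or with a fixed anchor-drug dose plus five library-drug doses (not always all listed) in √10 steps, then fixed, stained and imaged at 4× after 5 days.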

Wnt-C59 + Tozasertib = compound: CC1=NC=CC(=C1)C2=CC=C(C=C2)CC(=O)NC3=CC=C(C=C3)C4=CN=CC=C4 [Wnt-C59] + Cc1cc(Nc2cc(N3CCN(C)CC3)nc(Sc3ccc(NC(=O)C4CC4)cc3)n2)n[nH]1 [Tozasertib] (partner 0.1 µM)
How it was run: as §1

Lapatinib + Trametinib = compound: CS(=O)(=O)CCNCc1ccc(-c2ccc3ncnc(Nc4ccc(OCc5cccc(F)c5)c(Cl)c4)c3c2)o1 [Lapatinib] + CC(=O)Nc1cccc(-n2c(=O)n(C3CC3)c(=O)c3c(Nc4ccc(I)cc4F)n(C)c(=O)c(C)c32)c1 [Trametinib] (partner 0.02 µM)
How it was run: as §1

Wnt-C59 + Alpelisib = compound: CC1=NC=CC(=C1)C2=CC=C(C=C2)CC(=O)NC3=CC=C(C=C3)C4=CN=CC=C4 [Wnt-C59] + Cc1nc(NC(=O)N2CCC[C@H]2C(N)=O)sc1-c1ccnc(C(C)(C)C(F)(F)F)c1 [Alpelisib] (partner 2 µM)
How it was run: as §1

| Cell Line | relative viability (Wnt-C59 + Pictilisib; first compound 0.001 µM) | relative viability (Wnt-C59 + Pictilisib; first compound 0.01 µM) | relative viability (Wnt-C59 + Pictilisib; first compound 0.03162 µM) | relative viability (Wnt-C59 + Pictilisib; first compound 0.1 µM) | relative viability (Wnt-C59 + Tozasertib; first compound 0.001 µM) | relative viability (Wnt-C59 + Tozasertib; first compound 0.01 µM) | relative viability (Wnt-C59 + Tozasertib; first compound 0.03162 µM) | relative viability (Wnt-C59 + Tozasertib; first compound 0.1 µM) | relative viability (Lapatinib + Trametinib; first compound 0.02 µM) | relative viability (Lapatinib + Trametinib; first compound 0.06325 µM) | relative viability (Lapatinib + Trametinib; first compound 0.2 µM) | relative viability (Lapatinib + Trametinib; first compound 0.6325 µM) | relative viability (Lapatinib + Trametinib; first compound 2 µM) | relative viability (Wnt-C59 + Alpelisib; first compound 0.001 µM) | relative viability (Wnt-C59 + Alpelisib; first compound 0.01 µM) | relative viability (Wnt-C59 + Alpelisib; first compound 0.03162 µM) | relative viability (Wnt-C59 + Alpelisib; first compound 0.1 µM) |
| --- | --- | --- | --- | --- | --- | --- | --- | --- | --- | --- | --- | --- | --- | --- | --- | --- | --- |
| LXF-289 | 0.767 | 0.774 | 0.853 | 0.794 | 0.22 | 0.221 | 0.182 | 0.194 | 0.713 | 0.689 | 0.68 | 0.652 | 0.631 | 1.05 | 1.03 | 1.04 | 1.02 |
| NCI-H23 | 0.426 | 0.454 | 0.467 | 0.423 | 0.377 | 0.33 | 0.446 | 0.333 |  |  | 0.368 | 0.467 | 0.398 | 0.68 | 0.663 | 0.822 | 0.584 |
| NCI-H322M | 0.517 | 0.426 | 0.491 | 0.414 | 0.444 | 0.432 | 0.454 | 0.427 | 0.493 | 0.435 | 0.492 | 0.508 | 0.377 | 0.747 | 0.715 | 0.718 | 0.478 |
| NCI-H358 | 0.311 | 0.345 | 0.314 | 0.354 | 0.108 | 0.0976 | 0.108 | 0.0887 | 0.135 | 0.108 | 0.122 | 0.123 | 0.121 | 0.917 | 0.825 | 0.901 | 0.905 |
| NCI-H441 | 0.557 | 0.428 | 0.592 | 0.573 | 0.691 | 0.646 | 0.691 | 0.566 | 0.429 |  | 0.398 | 0.392 | 0.417 | 0.797 | 0.687 | 0.809 | 0.583 |
| NCI-H460 | 0.33 | 0.327 | 0.373 | 0.32 | 0.465 | 0.0488 | 0.555 | 0.48 | 0.0377 | 0.0952 | 0.282 | 0.171 | 0.0626 | 0.45 | 0.46 | 0.472 | 0.413 |
| NCI-H520 | 0.247 | 0.293 | 0.329 | 0.291 | 0.434 | 0.54 | 0.496 | 0.43 | 0.692 | 0.62 | 0.642 | 0.845 | 0.557 | 0.932 | 0.969 | 1.06 | 0.785 |
| NCI-H596 | 0.43 | 0.437 | 0.381 | 0.421 | 0.943 | 0.778 | 0.882 | 0.905 |  | 0.745 | 0.777 | 0.854 | 0.617 | 0.528 | 0.396 | 0.615 | 0.475 |
| NCI-H647 | 0.35 | 0.374 | 0.39 | 0.429 | 0.448 | 0.27 | 0.167 | 0.179 | 0.394 | 0.42 | 0.45 | 0.641 | 0.224 | 1.15 | 1.11 | 1.23 | 1 |
| NCI-H650 | 0.838 | 0.94 | 0.982 | 0.685 | 0.734 | 0.748 | 0.802 | 0.729 |  | 0.78 | 0.965 | 0.955 | 0.927 | 1.01 | 1.24 | 1.23 | 1.11 |
| NCI-H661 | 0.414 | 0.441 | 0.391 | 0.442 | 0.351 | 0.324 | 0.352 | 0.357 | 0.509 | 0.536 | 0.549 | 0.432 | 0.388 | 0.621 | 0.595 | 0.813 | 0.821 |
| NCI-H727 | 0.381 | 0.342 | 0.43 | 0.309 | 0.702 | 0.547 | 0.586 | 0.565 | 0.365 |  | 0.436 | 0.382 | 0.363 | 0.584 | 0.546 | 0.741 | 0.421 |
| NCI-H838 | 0.463 | 0.516 | 0.439 | 0.42 | 0.332 | 0.247 | 0.293 | 0.263 | 0.609 | 0.436 | 0.575 | 0.517 | 0.483 | 1.06 | 0.98 | 1.13 | 1.02 |
| NCI-H1355 | 0.486 | 0.325 | 0.38 | 0.393 | 0.599 | 0.581 | 0.564 | 0.558 | 0.406 | 0.349 | 0.37 | 0.387 | 0.261 | 1.01 | 0.746 | 0.801 | 0.733 |
| NCI-H1395 | 0.656 | 0.608 | 0.655 | 0.664 | 0.71 | 0.668 | 0.755 | 0.844 |  | 0.956 | 1.07 | 1.06 | 1.03 | 0.993 | 1.13 | 1.08 | 1.07 |
| NCI-H1437 | 0.531 | 0.617 | 0.467 | 0.479 | 0.426 | 0.428 | 0.417 | 0.384 | 0.475 | 0.492 | 0.498 | 0.458 | 0.303 | 1.07 | 0.917 | 1.09 | 0.946 |
| NCI-H1651 | 0.601 | 0.584 | 0.541 | 0.561 | 0.918 | 0.537 | 0.761 | 0.744 | 0.856 | 0.809 | 0.827 | 0.806 | 0.811 | 1.04 | 0.956 | 0.934 | 0.815 |
| NCI-H1666 | 0.43 | 0.218 | 0.479 | 0.477 | 0.649 | 0.674 | 0.566 | 0.576 | 0.722 | 0.718 | 0.727 | 0.674 | 0.501 | 0.874 | 0.895 | 0.974 | 0.942 |
| NCI-H1734 | 0.438 | 0.438 | 0.473 | 0.461 | 0.258 | 0.233 | 0.288 | 0.139 |  | 0.548 | 0.626 | 0.691 | 0.721 | 0.807 | 0.68 | 0.703 | 0.726 |
